Data set [1] deals with fatty acid biosynthesis in B392 cells. In words: High-throughput 96-well screen for fatty acid biosynthesis inhibitors. In kind it is cell-based, Vibrio harveyi. The note with it: B392, 96-well plate; for Fluorescence ratio between non-treated cells and drug treated cells: C6N3 5 mM overnight, final drug concentrations 500, 50 or 5 μM, cerulenin at sub-bacteriostatic concentration; for Detection as fatty acid biosynthesis inhibitor in the high-throughput screen: FIG. 6. How it is done:
In this example, a high-throughput cell-based antibiotic screen, which would identify fatty acid biosynthesis inhibitors, was implemented. B392 cells in a 96-well plate were treated with various concentrations of commercially available fatty acid biosynthesis inhibitors, including cerulenin (Ref. 8), bischloroanthrabenzoxocinone (Ref. 10), thiolactomycin (Ref. 11), and platensimycin (Ref. 2) as well as a number of arbitrarily chosen drugs (listed in TABLE 3).
In TABLE 3 above, rows of the 96-well plate are indicated by a letter and the columns are indicated by a number. Antibiotics labeled with a *, the wells contain 200× stocks of 10 mM and 1 mM of antibiotic in descending order. For bischloroanthrabenzoxocinone, thiolactomycin, and platensimycin, the wells only contain 200× stocks of 1 mM of antibiotic. For other antibiotics, the wells contain 200× stocks of 100 mM, 10 mM, and 1 mM of antibiotic in descending order.
B392 cells given no drug treatment served as the control. Cells were then fed with C6N3 and allowed to grow overnight. Extracellular C6N3 was washed away with 0.9% NaCl three times, and cellular lipids were click-reacted with 50 μM cyclooctyne-coumarin conjugate for 30 minutes at 37° C. Non-reacted cyclooctyne-coumarin conjugate was washed away with 0.9% NaCl three times, and cells were re-suspended in 0.9% NaCl to be analyzed by plate reader. […]. It should be noted that the same method described here in Example 3 can be used to identify compounds which enhance fatty acid biosynthesis. […].
In particular, B392 cells were grown in 150 mL cultures of synthetic media (Ref. 9) until OD 0.3 was reached. Cells were transferred (1 mL of the culture loaded into each well) to a 2 mL 96-well plate via a multi-pipette robot (this robot was used for most liquid transfers mentioned in this example). To each well, 5 μL of antibiotic from a 200× stock antibiotic plate in DMSO (TABLE 3) was introduced to create final treatment concentrations of 500 μM, 50 μM, and 5 μM. After 30 minutes, 10 μL of 500 mM C6N3 in DMSO was introduced to each well for a final treatment concentration of 5 mM. Cells were grown overnight, then spun down at 2000 g for 10 minutes. Supernatant was removed, and then non-incorporated C6N3 was washed from cells three times by re-suspending the cells in 1 mL of 0.9% NaCl, spinning the cells down at 2000 g for 10 minutes, and removing the supernatant. The cells were re-suspended in 200 μL of 50 μM cyclooctyne-coumarin conjugate in 0.9% NaCl and incubated at 37° C. for 30 minutes. Cells were collected and washed three more times with 1 mL of 0.9% NaCl to remove non-reacted cyclooctyne-coumarin conjugate, and cells re-suspended in 400 μL of 0.9% NaCl were analyzed by plate reader for fluorescence (excitation 380 nm, detection 500 nm) and cell density.

The conditions of data set [2]: known (Ref 10); cited from earlier work.
Data set [3] concerns fatty acid elongation in V. harveyi strain CY1723. As to the kind of experiment: C6N3 incorporation/elongation assay, cyclooctyne-coumarin labeling, plate reader. In kind it is cell-based, Vibrio harveyi. The note with it: C6N3 5 mM + cerulenin 10 μg/mL. On the procedure:
(§1) In particular, the cells were grown in 5 mL of synthetic media (Ref 9), and at OD 0.2, cerulenin was introduced to appropriate samples for a final treatment concentration of 10 μg/mL (sub-bacteriostatic). Then, at OD 0.3, C6N3 was introduced to appropriate samples for a final treatment concentration of 5 mM. After allowing the cells to grow in presence of C6N3 for 5 hours, the cells were spun down at 5000 g for 10 minutes, and the supernatant was removed. Non-incorporated C6N3 was washed from cells three times by re-suspending the cell pellet in 10 mL of 0.9% NaCl, spinning the cells down at 5000 g for 10 minutes, and removing the supernatant. […] The cells were re-suspended in 1 mL of 50 μM cyclooctyne-coumarin conjugate in 0.9% NaCl and incubated at 37° C. for 30 minutes. Cells were collected and washed three more times with 10 mL of 0.9% NaCl to remove non-reacted cyclooctyne-coumarin conjugate, and a fraction of the cells re-suspended in 2 mL of 0.9% NaCl were analyzed by plate reader (excitation 380 nm, detection 500 nm) or flow cytometry (excitation 407 nm, detection 450/40 bandpass filter).
In particular, the cells were grown in 5 mL of synthetic media (Ref 9), and at OD 0.2, cerulenin was introduced to appropriate samples for a final treatment concentration of 10 μg/mL (sub-bacteriostatic). […]

Data set [4] has as its system fatty acid elongation in Vibrio harveyi strain B392. The data set is described as above. In kind it is cell-based. How it is done: as §1
(§2) In particular, the cells were grown in 5 mL of synthetic media (Ref 9), and at OD 0.2, cerulenin was introduced to appropriate samples for a final treatment concentration of 10 μg/mL (sub-bacteriostatic). Then, at OD 0.3, C6N3 was introduced to appropriate samples for a final treatment concentration of 5 mM. After allowing the cells to grow in presence of C6N3 for 5 hours, the cells were spun down at 5000 g for 10 minutes, and the supernatant was removed. Non-incorporated C6N3 was washed from cells three times by re-suspending the cell pellet in 10 mL of 0.9% NaCl, spinning the cells down at 5000 g for 10 minutes, and removing the supernatant. The cells were re-suspended in 1 mL of 50 μM cyclooctyne-coumarin conjugate in 0.9% NaCl and incubated at 37° C. for 30 minutes. Cells were collected and washed three more times with 10 mL of 0.9% NaCl to remove non-reacted cyclooctyne-coumarin conjugate, and cells re-suspended in 2 mL of 0.9% NaCl were analyzed by plate reader (excitation 380 nm, detection 500 nm) or flow cytometry (excitation 407 nm, detection 450/40 bandpass filter).

Data set [5] has as its system fatty acid elongation in V. harveyi CY1723. In words: C6N3 incorporation/elongation assay, cyclooctyne-coumarin labeling, flow cytometry. In kind it is cell-based, Vibrio harveyi. The note with it: C6N3 5 mM + cerulenin 10 μg/mL. How it is done:
as §2
(§3) In addition, the samples were analyzed by flow cytometry (FIG. 4)

The test system of data set [6] is fatty acid elongation in V. harveyi B392. The data set is described as above. Type of data set: cell-based, Vibrio harveyi. The note with it: C6N3 5 mM + cerulenin 10 μg/mL. On the procedure:
as §2, §3

Turning to `C=C/C(C)=C/[C@@]1(C)SC(=O)C(C)=C1O` [thiolactomycin, Thiolactomycin], in data set [1], the “Fluorescence ratio between non-treated cells and drug treated cells” value is ~4.0; the “Detection as fatty acid biosynthesis inhibitor in the high-throughput screen” value is on record as “can be detected”.
Take `CC12C[C@@]34C=CC(=O)[C@@](C)(CCC(=O)Nc5c(O)ccc(C(=O)O)c5O)C3[C@H](CC1C4)O2` (stereo partly drawn) [platensimycin, Platensimycin]: in data set [1], the “Fluorescence ratio between non-treated cells and drug treated cells” value was ~2.6; the “Detection as fatty acid biosynthesis inhibitor in the high-throughput screen” value was “can be detected”.
In the case of `COc1cc(C)c2c(c1)O[C@]1(C)Cc3cc4c(c(O)c3[C@H]2O1)C(=O)c1c(O)c(Cl)c(O)c(Cl)c1C4(C)C` [Bischloroanthrabenzoxocinone], in data set [2], the Cell permeability entry is reported as “poor cell permeability”. Further, the “Detection as fatty acid biosynthesis inhibitor in the high-throughput screen” value in data set [1] is “not detected”.
As for `C/C=C/C/C=C/CCC(=O)[C@H]1O[C@H]1C(N)=O` [cerulenin, Cerulenin], the “Ratio (fluorescence/OD of Entry 1 divided by fluorescence/OD of the sample)” value in data set [3] is reported as 11.99; in data set [4] (B392, C6N3 5 mM + cerulenin 10 μg/mL, plate reader), 11.58. For the same compound, the Fluorescence/OD in data set [3] (5 hours) is on record as 44069; in data set [4] (B392, C6N3 5 mM + cerulenin 10 μg/mL, 5 hours, plate reader), 45609. The “Fold decrease in fluorescence of cerulenin-treated culture compared to the same culture untreated” value in data set [4] (B392, C6N3 5 mM, cerulenin 10 μg/mL, FIG. 3) is reported as “about seven-fold”. In data set [4] (B392 and CY1723 cells treated with C6N3 and cerulenin, TABLES 1 and 2), the “Inhibition of fatty acid biosynthesis / azide incorporation in lipids” value is reported as “inhibited fatty acid biosynthesis efficiently”. In addition, the “Fluorescence ratio between non-treated cells and drug treated cells” value in data set [1] was ~4.5. Also, the “Detection as fatty acid biosynthesis inhibitor in the high-throughput screen” value in data set [1] is recorded as “can be detected”. Besides, the Mean fluorescence in data set [5] is reported as 1704; in data set [6] it was 2347. Also, the figures for the “Ratio (mean fluorescence of Entry 1 divided by mean fluorescence of the sample)” value in data set [5] and in data set [6] were 11.09 and 8.06, respectively.

These data come from patent publication US20120231470A1, “METHODS AND SYSTEMS ASSOCIATED WITH DETECTION OF FATTY ACID ELONGATION IN A CELL” (priority 2011, published 2012).
